Patent US20090131308A1, “Splice Variants of ErbB Ligands, Compositions and Uses Thereof” (AGOS BIOTECH LTD., priority 2003, published 2009)
Entries after “also recorded” stand apart in the source; their conditions may differ. No end group written: not given here.

Experiments:
Betacellulin = experiment: BIAcore ligand-ligand interaction, immobilized Betacellulin; format: binding, human or bovine; conditions: peptide 0.3-10 μM (in some cases 50 μM); BIAcore 3000, blank channel subtracted; FIG. 6
Method: Biosensor analyses were performed using a BIAcore™ 3000. A CM-5 (research grade) sensor chip was immobilized with recombinant human or bovine EGF, TGF alpha and Betacellulin on flowcells 2, 3 and 4, respectively. Immobilizations were performed using amine coupling chemistry in 10 mM Sodium Acetate at pH 4.2. Varying concentrations (0.3 μM, 0.6 μM, 1.25 μM, 2.5 μM, 5 μM, 10 μM [and in some cases 50 μM]) of hNRG2(1-32), mEGF(1-32) & hEGF(1-32) were injected (30 μl) over the sensor surfaces in HBS running buffer (10 mM HEPES, 3.4 mM EDTA, 0.15M NaCl, 0.005% Tween 20, pH 7.4) at a flow rate of 5 μl/min. The surfaces were then regenerated by injecting 10 μl of 10 mM NaOH at a flow rate of 20 μl/min. The resulting sensor curves were subtracted against the blank channel (Flowcell 1) to yield the specific response.

[1] = system: BaF/3 cells transfected with the EGFR (BaF/3-EGFR); experiment: Activatory ligand stimulated mitogenesis assay; format: cell-based; conditions: for potentiation of mitogenesis of BaF/3-EGFR cells: titrating concentrations of variant ligand, preliminary results, data not shown
Method: BaF/3 cells transfected with the EGFR (BaF/3-EGFR; Walker et al, Growth Factors 16: 53-67, 1998) are washed three times to remove residual IL-3 and resuspended in RPMI 1640+10% FCS. Cells are then seeded into 96 well plates using a Biomek 2000 (Beckman) at 2×10^4 cells per 200 microlitres and incubated for 4 h at 37 C in 10% CO2. To determine the efficacy of this system with a positive control, cells are first grown with titrating concentrations of activatory ligand EGF alone, to determine the minimum amount of ligand required to achieve maximal or sub-maximal receptor-mediated mitogenesis for these cells. […] Titrating concentrations of ErbB variant ligands are added to the cells to test their mitogenic potential. In a similar manner, BaF/3 or different cells expressing a range of ErbB receptors, rendering them mitogenically responsive to ErbB ligand stimulation, are used to test these and other variant ligands for activatory ligand stimulated mitogenesis (exemplified in Harari et. al., 1999).

[2] = target: T1, soluble ErbB2 (amino acids 1-509) (Homo sapiens, UniProt P04626); experiment: BIAcore receptor binding assay, immobilized soluble ErbB2; conditions: peptide up to 10 uM; BIAcore 3000, CM-5 chip; data not shown
T1 construct: soluble ErbB2 (amino acids 1-509)
Method: (§1) Biosensor analyses were performed using a BIAcore™ 3000. A CM-5 (research grade) sensor chip was immobilized with soluble EGFR (amino acids 1-501), soluble EGFR (amino acids 1-621) and soluble ErbB2 (amino acids 1-509) on flowcells 2, 3 and 4, respectively. Immobilizations were performed using amine coupling chemistry in 10 mM Sodium Acetate at pH 4.2. Varying concentrations (1.25 μM, 2.5 μM, 5 μM and 10 μM) of peptides were injected (30 μl) over the sensor surfaces in HBS running buffer (10 mM HEPES, 3.4 mM EDTA, 0.15M NaCl, 0.005% Tween 20, pH 7.4) at a flow rate of 5 μl/min. The surfaces were then regenerated by injecting 10 μl of 10 mM NaOH at a flow rate of 20 μl/min. The resulting sensor curves were subtracted against the blank channel (Flowcell 1) to yield the specific response.

[3] = system: soluble ErbB1 (soluble EGFR amino acids 1-501 and 1-621); experiment: BIAcore receptor binding assay, immobilized soluble EGFR; conditions: peptide up to 10 uM; BIAcore 3000, CM-5 chip; data not shown
Method: as §1

Substance | binding to immobilized Betacellulin (Betacellulin) | potentiation of mitogenesis of BaF/3-EGFR cells [1] | binding to immobilized soluble ErbB2 [2] | binding to immobilized soluble ErbB1 [3] | mitogenic response of BaF/3-EGFR cells ([1]; positive control at a concentration of approximately 200 μM)
NSDSECPLSHDGYCLHDGVCMYIEALDKYACK-OH (not fully specified; C-terminal free acid) [hEGF(1-32)] | no binding | – | – | – | –
NSYPGCPSSYDGYCLNGGVCMHIESLDSYTCK-OH (C-terminal free acid) [mEGF(1-32)] | weak binding; also recorded: low affinity interaction | do not potentiate mitogenesis | failed to demonstrate measurable binding | failed to demonstrate measurable binding | –
GHARKCNETAKSYCVNGGVCYYIEGINQLSCK-OH (also: air-oxidised refolding, disulfide pairing not given here) [hNRG2(1-32)] | weak binding; also recorded: low affinity interaction | do not potentiate mitogenesis | failed to demonstrate measurable binding | failed to demonstrate measurable binding | –
EGF: activatory ligand EGF purified from mouse salivary glands, positive control (NSYPGCPSSYDGYCLNGGVCMHIESLDSYTCNCVIGYSGDRCQTRDLRWWELR; Epidermal growth factor; UniProt P01132 977-1029, looked up) [reference compound] | – | – | – | – | sub-maximal to maximal mitogenic response
